# Experimental data taken from US9029386B2, “Pyridine derivatives useful as kinase inhibitors” (YM Biosciences Australia Pty Ltd, priority 2006, dated 2015).
# Key:
# PDGFR β tyrosine kinase = target: T1, PDGFR β tyrosine kinase (Homo sapiens, UniProt P09619); test: Alphascreen protein tyrosine kinase assay, PDGFRβ; assay type: biochemical
# T1 construct: purchased Upstate Cell Signalling Solutions, CA, USA 14-463
# [1] = target: T2, kinase domain of human CSF1-R (Homo sapiens, UniProt P07333); test: Alphascreen protein tyrosine kinase assay, CSF-1R; assay type: biochemical
# T2 construct: from codon I553 to Q961; made in house; host or cells: Sf9 insect cells (baculovirus)
# T2 sequence (P07333 553-961): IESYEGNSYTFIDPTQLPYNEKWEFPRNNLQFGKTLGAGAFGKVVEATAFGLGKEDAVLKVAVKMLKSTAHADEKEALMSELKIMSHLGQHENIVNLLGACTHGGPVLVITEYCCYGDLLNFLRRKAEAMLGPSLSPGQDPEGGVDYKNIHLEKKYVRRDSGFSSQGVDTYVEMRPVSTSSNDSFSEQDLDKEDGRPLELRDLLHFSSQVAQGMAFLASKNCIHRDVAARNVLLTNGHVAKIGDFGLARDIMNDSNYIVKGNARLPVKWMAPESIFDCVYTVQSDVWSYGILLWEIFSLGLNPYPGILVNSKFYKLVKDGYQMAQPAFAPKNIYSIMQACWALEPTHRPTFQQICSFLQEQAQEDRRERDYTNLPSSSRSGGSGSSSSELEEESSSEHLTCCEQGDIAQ
# Protocol: (§1) For screening purposes, compounds were diluted in 96 well plates at a concentration of 20 μM. Plates were warmed at 37° C. for 30 minutes before assay.
# The kinase domain of human CSF1-R from codon I553 to Q961 was cloned into the pDEST-20 expression vector (Invitrogen). The CSF1-R plasmid was then transformed into competent DH10Bac cells (Gibco), and the recombinant baculovirus produced prepared for transfection into Sf9 insect cells.
# (§2) Baculovirus preparations from each of construct were infected into five liters of SF9 cells (Invitrogen) grown in SF-900 medium (Invitrogen) to a cell density of approximately 1−2×10^6 cells/ml. […] Cells were harvested and lysed. Tyrosine kinase domains were purified by affinity chromatography on a glutathione-agarose column (Scientifix Pty. Ltd. catalog #: GSH-200).
# (§3) Kinase assays were performed in 384 well Optiplates (Packard) using an Alphascreen Protein Tyrosine Kinase kit. […] Alphascreen phosphotyrosine acceptor beads followed by streptavidin donor beads were added under subdued light. The Alphascreen plates were read on a Packard Fusion Alpha. Inhibitors were added to the assays thirty minutes prior to the addition of ATP. Inhibitors were added in aqueous DMSO, with DMSO concentrations never exceeding 1%.
# [2] = target: T3, kinase domain of human c-kit (Homo sapiens, UniProt P10721); test: Alphascreen protein tyrosine kinase assay, c-KIT; assay type: biochemical
# T3 construct: from codon M552 to end; made in house; host or cells: Sf9 insect cells (baculovirus)
# T3 sequence (P10721 552-976 limits assumed): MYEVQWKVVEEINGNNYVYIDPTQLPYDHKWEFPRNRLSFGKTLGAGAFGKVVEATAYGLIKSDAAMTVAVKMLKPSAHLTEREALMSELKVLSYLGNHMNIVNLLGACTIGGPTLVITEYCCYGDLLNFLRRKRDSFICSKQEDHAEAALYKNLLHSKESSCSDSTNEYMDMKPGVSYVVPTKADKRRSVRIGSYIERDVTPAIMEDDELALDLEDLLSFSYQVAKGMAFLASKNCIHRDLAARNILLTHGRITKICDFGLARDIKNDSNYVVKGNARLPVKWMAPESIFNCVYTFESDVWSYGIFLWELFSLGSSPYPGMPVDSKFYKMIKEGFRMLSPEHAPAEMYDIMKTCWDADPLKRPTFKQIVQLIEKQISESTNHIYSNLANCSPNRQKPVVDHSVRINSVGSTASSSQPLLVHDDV
# Protocol: as §1
# The kinase domain of human c-kit from codon M552 to end was cloned into the pDEST-20 expression vector (Invitrogen). The c-kit plasmid was then transformed into competent DH10Bac cells (Gibco), and the recombinant baculovirus produced prepared for transfection into Sf9 insect cells.
# as §2, §3
# KDR protein kinase = target: T4, KDR protein kinase (Homo sapiens, UniProt P35968); test: Alphascreen protein tyrosine kinase assay, KDR; assay type: biochemical
# T4 construct: purchased Millipore 14-630M
# T4 sequence (P35968 20-1356): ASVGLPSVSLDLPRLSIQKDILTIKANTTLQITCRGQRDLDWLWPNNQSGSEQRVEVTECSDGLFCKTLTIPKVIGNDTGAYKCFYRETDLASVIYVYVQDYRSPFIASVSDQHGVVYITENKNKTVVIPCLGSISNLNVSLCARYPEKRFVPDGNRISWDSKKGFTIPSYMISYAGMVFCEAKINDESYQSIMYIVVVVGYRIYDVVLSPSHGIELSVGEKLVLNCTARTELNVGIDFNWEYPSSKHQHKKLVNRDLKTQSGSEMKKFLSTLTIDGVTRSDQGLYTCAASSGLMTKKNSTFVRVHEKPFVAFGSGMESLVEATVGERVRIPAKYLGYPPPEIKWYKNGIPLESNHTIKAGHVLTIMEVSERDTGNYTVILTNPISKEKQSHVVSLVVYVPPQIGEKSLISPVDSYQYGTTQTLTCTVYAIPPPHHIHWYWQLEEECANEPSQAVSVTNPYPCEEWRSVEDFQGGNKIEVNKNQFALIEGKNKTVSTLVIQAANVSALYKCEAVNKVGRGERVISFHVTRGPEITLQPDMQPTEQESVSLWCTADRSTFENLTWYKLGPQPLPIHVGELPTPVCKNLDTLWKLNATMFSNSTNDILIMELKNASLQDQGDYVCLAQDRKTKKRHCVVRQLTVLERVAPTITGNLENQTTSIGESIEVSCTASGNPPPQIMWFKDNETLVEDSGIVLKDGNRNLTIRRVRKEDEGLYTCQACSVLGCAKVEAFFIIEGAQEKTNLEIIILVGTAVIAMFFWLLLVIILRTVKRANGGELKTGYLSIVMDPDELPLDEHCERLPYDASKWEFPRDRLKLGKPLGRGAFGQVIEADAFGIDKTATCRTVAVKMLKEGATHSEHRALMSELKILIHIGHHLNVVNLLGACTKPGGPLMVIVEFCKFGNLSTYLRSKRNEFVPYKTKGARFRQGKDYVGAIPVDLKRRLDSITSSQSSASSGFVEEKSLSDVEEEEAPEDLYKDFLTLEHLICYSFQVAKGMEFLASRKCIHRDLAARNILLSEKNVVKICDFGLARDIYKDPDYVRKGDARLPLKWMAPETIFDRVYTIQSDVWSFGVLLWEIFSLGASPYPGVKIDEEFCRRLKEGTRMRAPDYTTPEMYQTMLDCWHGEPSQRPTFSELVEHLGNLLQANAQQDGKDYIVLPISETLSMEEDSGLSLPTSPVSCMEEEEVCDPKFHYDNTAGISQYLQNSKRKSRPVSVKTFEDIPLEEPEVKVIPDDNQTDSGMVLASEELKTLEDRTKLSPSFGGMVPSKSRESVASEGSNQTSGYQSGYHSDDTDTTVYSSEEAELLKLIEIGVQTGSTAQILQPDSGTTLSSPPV
# Protocol: as §1
# FLT-3 and PDGFR β tyrosine kinase enzymes were purchased from Upstate Cell Signalling Solutions, CA, USA (flt-3 catalog #: 14-500 and PDGFR β catalog #: 14-463). KDR protein kinase enzyme was purchased from Millipore (catalogue #14-630M).
# Kinase assays were performed in 384 well Optiplates (Packard) using an Alphascreen Protein Tyrosine Kinase kit. […] The biotinylated peptides Biotin-[…]-NH2 for c-KIT and PDGFRβ and Biotin-[…]-NH2 for CSF1-R and FLT-3 (final concentration 0.1-3 μM) were used as substrates. Alphascreen phosphotyrosine acceptor beads followed by streptavidin donor beads were added under subdued light. The Alphascreen plates were read on a Packard Fusion Alpha. Inhibitors were added to the assays thirty minutes prior to the addition of ATP. Inhibitors were added in aqueous DMSO, with DMSO concentrations never exceeding 1%.
# mNFS-60 = test: Cellular assay (Alamar Blue), mNFS-60 with human M-CSF; assay type: cell-based; conditions: human M-CSF at 20 ng/ml, 72 hr
# Protocol: (§4) Cells for the assays were prepared by harvesting cells from culture, and then diluting them in the appropriate growth medium to between 40,000 cell/mL and 600,000 cell/mL, depending on the cell line.
# (§5) The compounds to be tested were added (104, 10× final concentration) to a flat bottomed 96-well plate. The cellular suspension (80 μL per well) was added, and one hour later the growth factor was added (human M-CSF at 20 ng/ml for mNFS-60, mouse IL-3 at 5 ng/ml for Baf3-WT). The plate was then incubated for 72 hr at 37° C., 5% CO2. Alamar Blue (10^4 per well) was added and the plates returned to the incubator for a further 4-8 hours.
# (§6) The plates were then read using a fluorescence plate reader at excitation 544 nm and emission 590 nm.
# Baf3-WT = test: Cellular assay (Alamar Blue), Baf3-WT with mouse IL-3; assay type: cell-based; conditions: mouse IL-3 at 5 ng/ml, 72 hr
# Protocol: as §4, §5, §6
# T1 sequence (P09619 33-1106): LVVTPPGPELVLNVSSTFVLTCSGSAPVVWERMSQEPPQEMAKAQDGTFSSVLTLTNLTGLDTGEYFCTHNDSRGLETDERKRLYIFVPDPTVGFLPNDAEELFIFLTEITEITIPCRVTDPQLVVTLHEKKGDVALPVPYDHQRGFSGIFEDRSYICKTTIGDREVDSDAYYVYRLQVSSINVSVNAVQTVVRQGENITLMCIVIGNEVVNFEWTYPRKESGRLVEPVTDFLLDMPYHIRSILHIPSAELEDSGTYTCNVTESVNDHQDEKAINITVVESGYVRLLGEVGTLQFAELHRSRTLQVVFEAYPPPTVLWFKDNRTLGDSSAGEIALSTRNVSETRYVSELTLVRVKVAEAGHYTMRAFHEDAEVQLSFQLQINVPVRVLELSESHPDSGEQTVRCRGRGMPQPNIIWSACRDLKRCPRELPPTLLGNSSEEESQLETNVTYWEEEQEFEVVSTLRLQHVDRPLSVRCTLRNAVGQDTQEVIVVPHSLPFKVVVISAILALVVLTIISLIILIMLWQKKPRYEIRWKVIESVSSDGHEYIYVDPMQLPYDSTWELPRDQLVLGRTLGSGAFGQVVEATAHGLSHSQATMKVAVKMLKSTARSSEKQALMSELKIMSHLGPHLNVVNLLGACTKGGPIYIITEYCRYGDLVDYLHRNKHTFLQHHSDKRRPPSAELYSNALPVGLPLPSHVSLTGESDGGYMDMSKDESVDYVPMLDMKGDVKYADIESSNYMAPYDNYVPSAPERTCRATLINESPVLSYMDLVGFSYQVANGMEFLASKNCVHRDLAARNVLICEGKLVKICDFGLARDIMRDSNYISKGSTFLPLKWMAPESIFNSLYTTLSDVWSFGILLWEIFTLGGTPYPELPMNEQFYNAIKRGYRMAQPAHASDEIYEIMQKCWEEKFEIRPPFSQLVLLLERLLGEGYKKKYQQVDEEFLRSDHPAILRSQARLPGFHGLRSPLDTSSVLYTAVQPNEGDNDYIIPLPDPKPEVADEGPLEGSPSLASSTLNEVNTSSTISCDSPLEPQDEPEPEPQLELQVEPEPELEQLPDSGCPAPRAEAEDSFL
SMILES,IC50 (PDGFR β tyrosine kinase) [nM],IC50 [1] [nM],IC50 [2] [nM],IC50 (KDR protein kinase) [nM],IC50 (Baf3-WT) [nM],IC50 (mNFS-60) [nM]
CC(Nc1cncc(-c2ccc(N)cc2)n1)c1cccc(NC(=O)c2cccnc2)c1 (racemic) [Compound 22],< 1000,< 100,< 100,,,
COc1cc(-c2cncc(N[C@@H](C)c3cccc(NC(=O)c4cccnc4)c3)n2)ccc1O [Compound 3],< 100,,< 100,,,
C[C@H](Nc1cncc(-c2cccnc2)n1)c1cccc(NC(=O)c2cccnc2)c1 [Compound 11],< 1000,< 1000,< 1000,,,
COc1cccc(-c2cncc(N[C@@H](C)c3cccc(NC(=O)c4cccnc4)c3)n2)c1 [Compound 13],< 100,< 100,< 100,,,
C[C@H](Nc1cncc(-c2cccc(NS(C)(=O)=O)c2)n1)c1cccc(NC(=O)c2cccnc2)c1 [Compound 16],< 1000,< 100,< 100,,,
C[C@H](Nc1cncc(-c2cn[nH]c2)n1)c1cccc(NC(=O)c2cccnc2)c1 [Compound 19],< 1000,< 100,< 100,,,
COc1ccc(-c2cncc(N[C@@H](C)c3cccc(NC(=O)c4cccnc4)c3)n2)c(OC)n1 [Compound 20],< 1000,< 100,< 100,,,
COc1cc(-c2cncc(N[C@@H](C)c3cccc(NC(=O)c4cncc(C)c4)c3)n2)ccc1OP(=O)(O)O [Compound 35],< 1000,< 100,< 1000,,,
COc1cccc(-c2cncc(N[C@@H](C)c3cccc(NC(=O)c4ccc(C)nc4)c3)n2)c1 [Compound 36],< 1000,< 100,< 100,,,
Cc1cncc(C(=O)Nc2cccc([C@H](C)Nc3cncc(Br)c3)c2)c1 [Compound 62],< 100,,< 100,< 100,> 10000,< 1000
Cc1cncc(C(=O)Nc2cccc([C@H](C)Nc3cncc(-c4ccc(N5CCOCC5)cc4)n3)c2)c1 [Compound 65],< 100,< 100,< 100,< 100,> 10000,< 200
COc1cccc(-c2cncc(N[C@@H](C)c3cccc(NC(=O)c4cccc(C)c4)c3)n2)c1 [Compound 100],< 100,< 100,< 1000,< 100,> 10000,< 200
C[C@H](Nc1cncc(Cl)n1)c1cccc(NC(=O)c2cccc(CN3CCN(C)CC3)c2)c1 [Compound 127],,,,,> 10000,< 1000
Cc1ccc(NC(=O)c2cccc(C(F)(F)F)c2)cc1[C@H](C)Nc1cncc(Cl)n1 [Compound 169],,< 1000,< 1000,< 100,< 10000,< 200
C[C@H](Nc1cncc(-c2ccc(S(N)(=O)=O)cc2)n1)c1cccc(NC(=O)c2cccc(C(F)(F)F)c2)c1 [Compound 173],,< 100,,,> 10000,< 1000
"C[C@H](Nc1cncc(-c2ccc(CO)cc2)n1)c1cccc(NC(=O)c2cccc(C(F)(F)F)c2)c1 [Compound 174, (S)—N-(3-(1-(6-(4-(hydroxymethyl)phenyl)pyrazin-2-ylamino)ethyl)phenyl)-3-(trifluoromethyl)benzamide]",,< 100,< 100,< 100,> 10000,< 200
C[C@H](Nc1cncc(-c2cccc(S(N)(=O)=O)c2)n1)c1cccc(NC(=O)c2cccc(C(F)(F)F)c2)c1 [Compound 178],,< 100,< 1000,< 100,< 10000,< 200
Cc1cn(-c2cncc(N[C@@H](C)c3cccc(NC(=O)c4cccc(C(F)(F)F)c4)c3)n2)cn1 [Compound 179],,< 100,< 100,< 100,< 10000,< 200

# Continued, in another order:
IC50 (PDGFR β tyrosine kinase) [nM],IC50 [1] [nM],IC50 [2] [nM],IC50 (KDR protein kinase) [nM],IC50 (Baf3-WT) [nM],SMILES,IC50 (mNFS-60) [nM]
,< 100,< 100,< 100,< 10000,C[C@H](Nc1cncc(-c2cccc(S(C)(=O)=O)c2)n1)c1cccc(NC(=O)c2cccc(C(F)(F)F)c2)c1 [Compound 181],< 200
,< 100,< 1000,< 100,> 10000,C[C@H](Nc1cncc(-c2ccc(S(C)(=O)=O)cc2)n1)c1cccc(NC(=O)c2cccc(C(F)(F)F)c2)c1 [Compound 182],< 200
,< 100,< 1000,< 100,< 10000,C[C@H](Nc1cncc(-c2ccc(NS(C)(=O)=O)cc2)n1)c1cccc(NC(=O)c2cccc(C(F)(F)F)c2)c1 [Compound 183],< 200
,< 100,< 1000,< 100,< 10000,C[C@H](Nc1cncc(-c2cccc(CO)c2)n1)c1cccc(NC(=O)c2cccc(C(F)(F)F)c2)c1 [Compound 185],< 200
,< 100,< 1000,< 100,> 10000,C[C@H](Nc1cncc(-c2ccc(N3CCOCC3)nc2)n1)c1cccc(NC(=O)c2cccc(C(F)(F)F)c2)c1 [Compound 187],< 200
,< 100,< 100,< 100,> 10000,Cc1cncn1-c1cncc(N[C@@H](C)c2cccc(NC(=O)c3cccc(C(F)(F)F)c3)c2)n1 [Compound 188],< 200
,< 100,< 1000,< 100,> 10000,C[C@H](Nc1cncc(-c2cccc(N3CCOCC3)c2)n1)c1cccc(NC(=O)c2ccc(F)c(Cl)c2)c1 [Compound 189],< 200
,< 100,< 100,< 100,> 10000,COc1cccc(C(=O)Nc2cccc([C@H](C)Nc3cncc(-c4cccc(N5CCOCC5)c4)n3)c2)c1 [Compound 190],< 200
,< 100,< 100,< 100,< 10000,C[C@H](Nc1cncc(-c2ccc(CN3CCN(C)CC3)cc2)n1)c1cccc(NC(=O)c2cccc(C(F)(F)F)c2)c1 [Compound 191],< 200
,< 100,< 100,< 100,> 10000,Cc1ccc(F)c(C(=O)Nc2cccc([C@H](C)Nc3cncc(-c4cccc(N5CCOCC5)c4)n3)c2)c1 [Compound 192],< 200
